What was measured:
[1] = target: T1, Avi-KRAS G12D (1-169) GppNHp/RAF1 RBD-3xFLAG (52-151) (Homo sapiens, UniProt P01116, G12D); experiment: Raf1-KRAS G12D-GppNHP disruption HTRF assay (Biological Example 1); format: binding
T1 construct: Avi-KRAS G12D (1-169)
Procedure, shortened: (§1)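 First, protein mix in Tris pH 7.5 buffer with NaCl, MgCl2, BSA, Tween and 10% DMSO is incubated 1 h at room temperature. Next, reagent mix is added and incubated a further 1 h at room temperature. Finally, HTRF is read and activity normalized to DMSO.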

[2] = target: T2, Avi-KRAS G12R (1-169) GppNHp/RAF1 RBD-3xFLAG (52-151) (Homo sapiens, UniProt P01116, G12R); experiment: Raf1-KRAS G12R-GppNHP disruption HTRF assay (Biological Example 1); format: binding
T2 construct: Avi-KRAS G12R (1-169)
Procedure, shortened: as §1

[3] = target: T3, Avi-KRAS G12V (1-169) GppNHp/RAF1 RBD-3xFLAG (52-151) (Homo sapiens, UniProt P01116, G12V); experiment: Raf1-KRAS G12V-GppNHP disruption HTRF assay (Biological Example 1); format: binding
T3 construct: Avi-KRAS G12V (1-169)
Procedure, shortened: as §1

[4] = target: T4, Avi-KRAS WT (1-169) GppNHp/RAF1 RBD-3xFLAG (52-151) (Homo sapiens, UniProt P01116); experiment: Raf1-KRAS WT-GppNHP disruption HTRF assay (Biological Example 1); format: binding
T4 construct: Avi-KRAS WT (1-169)
Procedure, shortened: as §1

GP2d cells (KRAS G12D) = experiment: Cell-based pERK HTRF assay in GP2d cell (Biological Example 2); conditions: GP2d (KRAS G12D) cells, pERK HTRF
Procedure, shortened: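 Treatment with test compounds lasted one hour in DMEM containing 10% FBS, with DMSO held at 0.25%. Dilution series: 9 points, half-log spacing, highest 1 μM or 100 nM. Lysates were incubated 4–24 h at room temperature with antibody mix, then HTRF was read at 320 nm excitation.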

SW620 cells (KRAS G12V) = experiment: Cell-based pERK HTRF assay in SW620 cell (Biological Example 4); conditions: Homo sapiens, SW-620, SW620 (KRAS G12V) cells, pERK HTRF
Procedure, shortened: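 SW620 cells were treated for 4 h with compound in a 9-point half-log series from 1 μM top (0.25% DMSO), then lysed. Phospho-ERK was detected by HTRF with d2 and Eu cryptate antibodies after 4–24 h at room temperature, read at 615 nm emission.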

[5] = KRAS G12D, GppNHp-loaded, class symbols
[6] = KRAS G12R, GppNHp-loaded, class symbols
[7] = KRAS G12V, GppNHp-loaded, class symbols
[8] = KRAS WT, GppNHp-loaded, class symbols
[9] = KRAS G12D, GppNHp-loaded, Table 11
[10] = KRAS G12R, GppNHp-loaded, Table 11
[11] = KRAS G12V, GppNHp-loaded, Table 11
[12] = KRAS WT, GppNHp-loaded, Table 11

T3 sequence (P01116 1-169 isoform P01116-2 G12V): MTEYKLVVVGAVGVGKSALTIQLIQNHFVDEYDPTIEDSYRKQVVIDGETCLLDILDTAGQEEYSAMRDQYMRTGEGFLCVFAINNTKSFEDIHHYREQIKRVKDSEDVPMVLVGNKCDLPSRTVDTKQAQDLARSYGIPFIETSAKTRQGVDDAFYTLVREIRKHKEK
T1 sequence (P01116 1-169 isoform P01116-2 G12D): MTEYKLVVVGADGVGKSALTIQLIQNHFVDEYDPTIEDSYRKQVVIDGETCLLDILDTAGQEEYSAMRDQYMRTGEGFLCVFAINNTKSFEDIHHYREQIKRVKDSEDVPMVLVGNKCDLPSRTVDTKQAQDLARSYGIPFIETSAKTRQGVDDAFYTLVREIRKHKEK
T2 sequence (P01116 1-169 isoform P01116-2 G12R): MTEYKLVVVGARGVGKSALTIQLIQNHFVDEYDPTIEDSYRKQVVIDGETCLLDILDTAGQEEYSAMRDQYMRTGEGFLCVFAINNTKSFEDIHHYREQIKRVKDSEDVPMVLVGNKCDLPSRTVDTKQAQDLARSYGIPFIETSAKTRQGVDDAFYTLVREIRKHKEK
T4 sequence (P01116 1-169 isoform P01116-2): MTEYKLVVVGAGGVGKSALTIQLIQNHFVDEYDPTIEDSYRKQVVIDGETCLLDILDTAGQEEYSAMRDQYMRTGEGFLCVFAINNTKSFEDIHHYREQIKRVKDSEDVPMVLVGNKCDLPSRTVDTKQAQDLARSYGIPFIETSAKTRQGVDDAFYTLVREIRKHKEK

Compound	IC50 [1, 5]	IC50 [2, 6]	IC50 [3, 7]	IC50 [4, 8]	IC50 (GP2d cells (KRAS G12D); GP2d, class symbols)	IC50 (SW620 cells (KRAS G12V); class symbols)	IC50 ([1]; KRAS G12D-GppNHp/RAF1 RBD HTRF)	IC50 ([2]; KRAS G12R-GppNHp/RAF1 RBD HTRF)	IC50 ([3]; KRAS G12V-GppNHp/RAF1 RBD HTRF)	IC50 ([4]; KRAS WT-GppNHp/RAF1 RBD HTRF)	IC50 (GP2d cells (KRAS G12D); GP2d)	IC50 (SW620 cells (KRAS G12V))	IC50 (GP2d cells (KRAS G12D))	IC50 [1, 9]	IC50 [2, 10]	IC50 [3, 11]	IC50 [4, 12]
CCN(c1nc(OC[C@@]23CCCN2C[C@H](F)C3)nc2c(F)c(-c3ccc(F)c4sc(N)c(C#N)c34)c(C(F)(F)F)cc12)[C@H]1CCN(C(=O)N(C)C2CC2)C1 (atropisomer, axis not shown) [Compound 583]	< 0.1 µM	< 0.1 µM	< 0.1 µM	< 0.1 µM	< 0.1 µM	< 0.1 µM	–	–	–	–	–	–	–	–	–	–	–
COC[C@H]1CN(c2nc(OC[C@@]34CCCN3C[C@H](F)C4)nc3c(F)c(-c4ccc(F)c5sc(N)c(C#N)c45)c(C(F)(F)F)cc23)CCO1 [Compound 283]	–	–	–	–	–	–	0.1 to 1 µM	0.1 to 1 µM	0.1 to 1 µM	0.1 to 1 µM	< 0.1 µM	< 0.1 µM	–	–	–	–	–
C=C(C)C(=O)N1CC[C@@H](N(C)c2nc(OC[C@@]34CCCN3C[C@H](F)C4)nc3c(F)c(-c4ccc(F)c5sc(N)c(C#N)c45)c(C(F)(F)F)cc23)[C@H]1C [Compound 671]	0.1 to 1 µM	0.1 to 1 µM	0.1 to 1 µM	0.1 to 1 µM	< 0.1 µM	0.1 to 1 µM	–	–	–	–	–	–	–	–	–	–	–
C[C@@H]1[C@H](N(C)c2nc(OC[C@@]34CCCN3C[C@H](F)C4)nc3c(F)c(-c4ccc(F)c5sc(N)c(C#N)c45)c(C(F)(F)F)cc23)CCN1C(=O)CF [Compound 461]	–	–	–	–	–	–	< 0.1 µM	0.1 to 1 µM	0.1 to 1 µM	< 0.1 µM	–	< 0.1 µM	< 0.1 µM	–	–	–	–
CCN(c1nc(OC[C@@]23CCCN2C[C@H](F)C3)nc2c(F)c(-c3ccc(F)c4sc(N)c(C#N)c34)c(C(F)(F)F)cc12)[C@@H]1CN(C(=O)C(C)C)C[C@@H]1F [Compound 475]	–	–	–	–	–	–	0.1 to 1 µM	0.1 to 1 µM	0.1 to 1 µM	0.1 to 1 µM	< 0.1 µM	< 0.1 µM	–	–	–	–	–
N#Cc1c(N)sc2c(F)ccc(-c3c(C(F)(F)F)cc4c(N5C[C@H]6[C@@H]5CCN6C(=O)C5CC5)nc(OC[C@@]56CCCN5C[C@H](F)C6)nc4c3F)c12 (atropisomer, axis not shown) [Compound 643]	1 to 10 µM	1 to 10 µM	1 to 10 µM	1 to 10 µM	0.1 to 1 µM	0.1 to 1 µM	–	–	–	–	–	–	–	–	–	–	–
CC(=O)N1CCC(N(C)c2nc(OC[C@@]34CCCN3C[C@H](F)C4)nc3c(F)c(-c4ccc(F)c5sc(N)c(C#N)c45)c(C(F)(F)F)cc23)CC1 [Compound 296]	–	–	–	–	–	–	0.1 to 1 µM	0.1 to 1 µM	0.1 to 1 µM	0.1 to 1 µM	< 0.1 µM	0.1 to 1 µM	–	–	–	–	–
CC[C@H](C)C(=O)N1CC[C@H](N(CC)c2nc(OC[C@@]34CCCN3C[C@H](F)C4)nc3c(F)c(-c4ccc(F)c5sc(N)c(C#N)c45)c(C(F)(F)F)cc23)C1 (atropisomer, axis not shown) [Compound 576]	< 0.1 µM	< 0.1 µM	0.1 to 1 µM	< 0.1 µM	< 0.1 µM	< 0.1 µM	–	–	–	–	–	–	–	–	–	–	–
CCOC(=O)N1CC[C@H](N(CC)c2nc(OC[C@@]34CCCN3C[C@H](F)C4)nc3c(F)c(-c4ccc(F)c5sc(N)c(C#N)c45)c(C(F)(F)F)cc23)C1 (atropisomer, axis not shown) [Compound 686]	< 0.1 µM	< 0.1 µM	< 0.1 µM	0.1 to 1 µM	< 0.1 µM	< 0.1 µM	–	–	–	–	–	–	–	–	–	–	–
CC(=O)N(C)[C@@H]1CCN(c2nc(OC[C@@]34CCCN3C[C@H](F)C4)nc3c(F)c(-c4ccc(F)c5sc(N)c(C#N)c45)c(C(F)(F)F)cc23)C1 [Compound 207]	–	–	–	–	–	–	–	–	–	–	< 0.1 µM	0.1 to 1 µM	–	0.1 to 1 µM	0.1 to 1 µM	0.1 to 1 µM	0.1 to 1 µM
CN1CCN(c2nc(OC[C@@]34CCCN3C[C@H](F)C4)nc3c(F)c(-c4ccc(F)c5sc(N)c(C#N)c45)c(C(F)(F)F)cc23)CCC1=O [Compound 271]	–	–	–	–	–	–	–	–	–	–	< 0.1 µM	< 0.1 µM	–	0.1 to 1 µM	0.1 to 1 µM	0.1 to 1 µM	0.1 to 1 µM
[2H]C([2H])([2H])OC(=O)N1CC[C@H](N(CC)c2nc(OC[C@@]34CCCN3C[C@H](F)C4)nc3c(F)c(-c4ccc(F)c5sc(N)c(C#N)c45)c(C(F)(F)F)cc23)C1 (atropisomer, axis not shown) [Compound 659]	< 0.1 µM	< 0.1 µM	< 0.1 µM	< 0.1 µM	< 0.1 µM	< 0.1 µM	–	–	–	–	–	–	–	–	–	–	–
CN(c1nc(OC[C@@]23CCCN2C[C@H](F)C3)nc2c(F)c(-c3ccc(F)c4sc(N)c(C#N)c34)c(C(F)(F)F)cc12)[C@@H]1C[C@@H]2COC(=O)N2C1 [Compound 450]	–	–	–	–	–	–	0.1 to 1 µM	0.1 to 1 µM	0.1 to 1 µM	0.1 to 1 µM	< 0.1 µM	< 0.1 µM	–	–	–	–	–
CN(c1nc(OC[C@@]23CCCN2C[C@H](F)C3)nc2c(F)c(-c3ccc(F)c4sc(N)c(C#N)c34)c(C(F)(F)F)cc12)C1CC(F)(F)C1 [Compound 162]	–	–	–	–	–	–	–	–	–	–	< 0.1 µM	< 0.1 µM	–	0.1 to 1 µM	0.1 to 1 µM	1 to 10 µM	0.1 to 1 µM
CN(C)C(=O)c1nc2c(s1)CCN(c1nc(OCC34CCCN3CC(F)C4)nc3c(F)c(-c4ccc(F)c5sc(N)c(C#N)c45)c(C(F)(F)F)cc13)C2 (stereo not drawn) [Compound 445]	–	–	–	–	–	–	1 to 10 µM	> 10 µM	> 10 µM	> 10 µM	> 1 µM	0.1 to 1 µM	–	–	–	–	–
N#Cc1c(N)sc2c(F)ccc(-c3c(C(F)(F)F)cc4c(N5CCn6nncc6C5)nc(OC[C@@]56CCCN5C[C@H](F)C6)nc4c3F)c12 [Compound 243]	–	–	–	–	–	–	–	–	–	–	< 0.1 µM	< 0.1 µM	–	0.1 to 1 µM	0.1 to 1 µM	0.1 to 1 µM	0.1 to 1 µM
CCN(c1nc(OC[C@@]23CCCN2C[C@H](F)C3)nc2c(F)c(-c3ccc(F)c4sc(N)c(C#N)c34)c(C(F)(F)F)cc12)[C@@H]1CCN(C(=O)[C@H](C)OC)[C@@H]1C (atropisomer, axis not shown) [Compound 789]	< 0.1 µM	< 0.1 µM	0.1 to 1 µM	< 0.1 µM	< 0.1 µM	< 0.1 µM	–	–	–	–	–	–	–	–	–	–	–
CCN(c1nc(OC[C@@]23CCCN2C[C@H](F)C3)nc2c(F)c(-c3ccc(F)c4sc(N)c(C#N)c34)c(C(F)(F)F)cc12)[C@@H]1CCS(=O)(=O)C1 [Compound 477]	–	–	–	–	–	–	0.1 to 1 µM	0.1 to 1 µM	0.1 to 1 µM	0.1 to 1 µM	< 0.1 µM	< 0.1 µM	–	–	–	–	–

— patent US20260042764A1, “COMPOSITIONS AND METHODS FOR INHIBITION OF KRAS” (TheRas, Inc., priority 2022, published 2026)
